Measured values taken from US20260335398A1, “METHODS FOR TREATING PANCREATIC CANCER WITH A COMBINATION OF DES-METHYL PATEAMINE A AND A CLASS I HDAC INHIBITOR” (Baylor University, priority 2023, published 2026).

How the values were obtained:
cells = settings: 50 nM, 6-hour exposure; cited from earlier work
MIA PaCa-2 and KLM cells = assay: Replication fork dynamics; type: cell-based; settings: 24 hours
Description: Having observed R-loop accumulation following treatment with the combination, it was hypothesized that hypertranscription, persistent hyperacetylation, and R-loop accumulation could increase the incidence of transcription replication conflicts, genome instability, and DNA damage and contribute to cell death. In response to DNA damage, replication protein A2 (RPA2) is phosphorylated at multiple sites by different protein kinases, including ATM, ATR, and DNA-PK, while the serine threonine-protein kinase, Chk1 (checkpoint kinase 1), is phosphorylated and activated by ATR. […] Drug treatments were for 24 hours (i.e., romidepsin treatment in combination or single agent romidepsin was 6 hours followed by 18-hour incubation with 2 nM DMPatA or with fresh medium respectively).

MIA PaCa-2 cells = assay: Cellular acetyl-CoA levels by LC-MS (FIG. 8D); type: cell-based; settings: MIA PaCa-2, total 18 h
Description: FIG. 8D compares cellular acetyl-CoA levels measured in MIA PaCa-2 cells using LC-MS following treatment of cells with the combination or with single agents as mentioned in FIG. 8A. At least three biological replicate experiments were carried out. Statistical significance was determined by two-way ANOVA, ****p value<0.0001, ***p value<0.0004.
Five million cells were seeded in 150 mm cell culture dishes. Cells were treated with combination or single agents for a total of 18 h (6-+12-hours). Following treatment cells were harvested on ice, washed, and scraped out under liquid nitrogen. Prior to extraction an aliquot of the cell pellet was collected and subjected to protein quantification.
For Acetyl-CoA extraction, a 100 μL aliquot of the thawed pellet was spiked with ^13C2-acetyl-CoA as an internal standard, extracted with 400 μL of methanol, vortexed, and centrifuged at […] for 5 minutes at 4 °C. The methanol supernatant (400 μL) was then dried under nitrogen at 35 °C and reconstituted in 100 μL of 10 mM ammonium bicarbonate (pH 9.5) for LC/MS analysis. Calibration curve standards were similarly prepared as the cell pellets. Acetyl-CoA quantification by LC/MS was performed on an Agilent 1290 Infinity UHPLC/6495 triple quadrupole mass spectrometer, using multiple reaction monitoring. […]

SNRPN locus = assay: DRIP-qPCR R-loop accumulation at negative locus SNRPN (FIG. 10A); type: cell-based; settings: MIA PaCa-2, 6+3 hours
Description: FIG. 10A illustrates the fold increase in the percent of input values in DRIP-qPCR for the VGF, HBA2, and SNRPN loci in MIA PaCa-2 cells treated with or without the combination or single agents. Genomic DNA was treated in vitro with or without RNaseH1 before immunoprecipitation using S9.6 antibody. Treatment was for 6+3 hours (i.e., 6-hour romidepsin followed by 3-hour washout with 2 nM DMPatA (combo) or without). Statistical significance was determined by 3-way ANOVA, ***p value<0.001. This experiment confirms the formation of R-loops at the investigated gene loci.
Romidepsin-induced histone hyperacetylation leads to the accumulation of R-loops that can increase genome instability. Because treatment of cells with the combination increased global transcription and led to persistence of histone hyperacetylation, it was postulated the treatment could similarly enhance the formation of R-loops and contribute to cell death. R-loop accumulation was further confirmed using DRIP-qPCR. […]
DRIP assay was performed according to the method previously described (Sanz L A, Chédin F. High-resolution, strand-specific R-loop mapping via S9. 6-based DNA-RNA immunoprecipitation and high-throughput sequencing. Nature protocols. 2019; 14(6):1734). […] Quantitative PCR was performed at the R-loop positive loci VGF and HBA2 genes and R-loop negative locus SNRPN gene with the primers listed in Table 1.

SMILES: C/C=C1\NC(=O)[C@H]2CSSCC/C=C/[C@H](CC(=O)N[C@H](C(C)C)C(=O)N2)OC(=O)[C@H](C(C)C)NC1=O [romidepsin]
- susceptibility of cells to romidepsin (cells): Only a subset of cells susceptible
- replication fork speed (MIA PaCa-2 and KLM cells): significant reduction
- cellular acetyl-CoA levels (MIA PaCa-2 cells): significant reduction
- R-loop accumulation at SNRPN (SNRPN locus): no accumulation of R-loops
